Paper PMC2803436 (Current Chemical Genomics, 2008)
Non-standard residues stand in square brackets, D forms with d. Residues, ends and D or L forms follow the SMILES beside them. Nle = CCCC[C@H](N)C(=O)O

Experiments:
[1] = target: T1, TEV protease (Tobacco etch virus, UniProt P04517); assay: CP234-Luc/ENLYFQC verification assay; conditions: SCH HBr and L-DOPA tested from 0 – 1 mM; NF-023 and ATA from 0 – 0.2 mM
T1 sequence (P04517 2038-2279): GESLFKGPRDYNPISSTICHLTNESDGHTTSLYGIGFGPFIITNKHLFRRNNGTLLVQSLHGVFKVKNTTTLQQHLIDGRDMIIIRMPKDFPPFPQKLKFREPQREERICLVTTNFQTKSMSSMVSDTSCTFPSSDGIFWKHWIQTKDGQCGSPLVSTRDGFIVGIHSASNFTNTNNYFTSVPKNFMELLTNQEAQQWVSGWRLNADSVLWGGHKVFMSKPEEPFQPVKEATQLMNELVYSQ

[2] = target: T1, TEV protease; assay: LOPAC1280 library screen using the CP234-Luc/ENLYFQC protease assay; format: biochemical; conditions: compounds at 100 µM, 15 minutes at room temperature
[3] = system: TEV protease; assay: Initial tests of established inhibitors on TEV protease; format: biochemical, Tobacco Etch Virus; conditions: for Inhibition of TEV protease by known inhibitors of cysteine proteases: data not shown
[4] = target: T1, TEV protease; assay: Protein fusion; format: biochemical; conditions: tested from 0 – 0.1 mM

| Compound | Inhibition of TEV protease cleavage in re-test, CP234-Luc/ENLYFQC assay [1] | Inhibition of TEV protease by known inhibitors of cysteine proteases [3] | further results |
| --- | --- | --- | --- |
| O=C(O)C1=CC(=C(c2ccc(O)c(C(=O)O)c2)c2ccc(O)c(C(=O)O)c2)C=CC1=O [ATA, aurintricarboxylic acid] | confirmed | – | TEV protease inhibition (cleavage of CP234-Luc/ENLYFQC) in primary screen [2]: greater than 60% |
| CCOC(=O)[C@H]1O[C@@H]1C(=O)N[C@@H](CC(C)C)C(=O)NCCC(C)C (relative stereo) [EST, (2S,3S)-trans-Epoxysuccinyl-L-leucylamido-3-methylbutane Ethyl Ester] | – | resistant | – |
| Br.CN=c1nc(-c2ccccc2)n(-c2ccccc2)s1 [SCH HBr, N-(2,3-diphenyl-1,2,4-thiadiazol-5-(2H)-ylidene)methanamine hydrobromide] | did not inhibit | – | Inhibition of TEV protease cleavage in re-test, protein fusion cleavage assay [4]: did not inhibit |
| 2,5-dihydroxy-DL-tyrosine [L-DOPA] | did not inhibit | – | Inhibition of TEV protease cleavage in re-test, protein fusion cleavage assay [4]: did not inhibit |
| [Zn] [zinc] | – | – | Inhibition of TEV protease ([3]; 5 mM, also frequently precipitated the proteins out of solution): effectively inhibited |
| CCCC[C@@H](C=O)NC(=O)[C@H](CC(C)C)NC(=O)[C@H](CC(C)C)NC(C)=O [ALLN, N-acetyl-Leu-Leu-NIe-CHO] (Ac-Leu-Leu-[Nle]-aldehyde) | – | resistant | – |
| CC(C)C[C@H](NC(=O)[C@H]1O[C@@H]1C(=O)O)C(=O)NCCCCN=C(N)N [E-64] | – | resistant | – |
